The target of experiment [1] is T1, MhPA14 (Marinobacter hydrocarbonoclasticus, UniProt A0ABF7PGZ6). Put plainly: Isothermal titration calorimetry (ITC). The format is binding. To be noted: 30°C; for Kd: 400 μM MhPA14, 8 mM sugar. The protocol:
Isothermal calorimetric titration (ITC) measurements were performed using a MicroCal VP-ITC calorimeter (Malvern) set at 30°C. […] Sugars were added from the computer-controlled rotating syringe (400 RPM) at 5-min intervals into the MhPA14 solution for a total of 50 injections. The data were analyzed by Origin software Version 5.0 (Malvern).
In general terms: In ITC the heat of successive injections is recorded.

In experiment [2] the target is T1, MhPA14. Put plainly: Superdex 200 column affinity test (gradient elution of bound MhPA14). The format is binding. To be noted: increasing gradient, 0-55 mM glucose or 0-5 mM EDTA over 45 min. The protocol:
A Superdex 200 10/300 GL column (GE Healthcare) was used to probe the resin-binding ability of MhPA14. Approximately 1 mg of MhPA14 was loaded onto the column and washed with 3 column volumes of Protein Buffer. An increasing gradient of either glucose or EDTA was then implemented, rising from 0 mM– 55 mM glucose or 0 mM– 5 mM EDTA over 45 min.

Experiment [3] has as its target T1, MhPA14. Description: Fungal, bacterial and plant polysaccharide array set 2 (Imperial College) probed with GFP_MhPA14. The format is binding. To be noted: 50 μg/mL GFP_MhPA14, anti-GFP antibody detection, average of duplicates. The protocol: The second array was screened at the Carbohydrate Microarray Facility (Glycosciences Laboratory, Imperial College). GFP_MhPA14 (50 μg/mL) was exposed to the ‘Fungal, bacterial and plant polysaccharide array set 2’, which contained duplicates of 20 saccharide probes extracted from a variety of organisms. An Alexa Fluora 647-tagged anti-GFP antibody was used for detection, and the duplicates were averaged to give the final RFU values.

Experiment [4] addresses T1, MhPA14. Description: Dextran-based (Superdex 200 resin) competitive binding assay. The protocol:
Superdex 200 (S200) resin stored in 20% ethanol was washed twice in Protein Buffer using 6600 xg centrifugation. A millilitre of 1 mg/mL MhPA14 fused N-terminally to GFP, named GFP_MhPA14 (S1 Fig), was incubated with 300 μL of equilibrated S200 resin. Following 30 sec of vortexing and 2 min of incubation with slight mixing (nutation), the solution was centrifuged at 6600 xg for 2.5 min and the supernatant discarded. Protein buffer (1 mL) was added to the tube, and the process of mixing followed by centrifugation was repeated. The A280 of the resulting supernatant was taken to account for the minimal amount of non-sugar-related protein disassociation from the resin, and was used as a baseline reading. The supernatant was then returned into its original resin mixture tube with the addition of 1.67 μmoles (3 μL of 555 mM) of saccharide. […] After reading the A280 of the supernatant, the above process was repeated for seven tandem saccharide additions of 1.67 μmoles, as well as a final 5-μmole addition. […]
Attempts to solve MhPA14 structures with other sugars bounds–whether by soaking or co-crystallization–were fruitless. […] The amount of GFP-tagged MhPA14 released from the resin upon each sugar addition was measured using absorbance at 280 nm, which was plotted against concentration of free sugar to produce semi-quantitative binding curves (Fig 8). […]

A further experiment deals with EpA1. On the set-up: method as in PMID 22349222. The following applies: EpA1 and its sugar of choice; cited from earlier work.
The mark [5] stands for this setting: fucose and glucose are averages of triplicate runs, read-out: Kd.
Setting [6] is: fucose and glucose are averages of triplicate runs.

Values joined by “and” are separate entries in the source; they are usually repeats but may differ in a detail not shown here. Equal entries are not always repeated. Where two headings read alike, the source gives them in different places.

T1 sequence (A0ABF7PGZ6 entry or part of it): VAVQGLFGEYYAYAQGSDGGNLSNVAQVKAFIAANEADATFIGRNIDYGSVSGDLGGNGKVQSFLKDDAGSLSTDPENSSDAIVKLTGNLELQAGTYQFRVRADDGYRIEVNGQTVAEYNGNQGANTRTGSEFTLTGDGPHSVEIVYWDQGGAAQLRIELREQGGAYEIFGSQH

By Kd is commonly meant the free concentration of one partner at which half of the binding sites on the other are occupied at equilibrium, for simple one-to-one binding. Turning to `OC[C@H]1OC(O)[C@H](O)[C@@H](O)[C@@H]1O` (stereo partly drawn) [Glucose, glucose], the Kd at MhPA14 [1] (setting [5]) came to 137 µM. Further, on MhPA14 [1] (setting [6]), the “N (calculated stoichiometry)” value is 1.01 ± 0.14. In addition, the “Concentration at which MhPA14 eluted from Superdex S200 column” value on MhPA14 [2] turned out to be 25 mM. Turning to `O=C(O)CN(CCN(CC(=O)O)CC(=O)O)CC(=O)O` [EDTA], the “Concentration at which MhPA14 eluted from Superdex S200 column” value at MhPA14 [2] came to 3.5 mM. With pullulan, at MhPA14 [3], the “Affinity for MhPA14 on polysaccharide array” value (“Affinity for MhPA14” below) is recorded as “modest affinities”. Consider `C[C@H](O)[C@@H](O)[C@@H](O)[C@H](O)C=O` [Fucose, 6-deoxy-L-galactose], for which the Kd at MhPA14 [1] (setting [5]) was 58 µM and 58.2 µM. Also, the “N (calculated stoichiometry)” value on MhPA14 [1] (setting [6]) is given as 0.98 ± 0.03. On to lentinan, for which the “Affinity for MhPA14” value at MhPA14 [3] was “strongest affinity”.

For the compound `CC(=O)N[C@@H]1[C@@H](O)[C@@H](O)[C@@H](CO)O[C@@H]1O` [N-acetylgalactosamine], the “Kdapp (apparent dissociation constant)” value on MhPA14 [4] (GFP_MhPA14 displaced from Superdex 200 resin by free sugar, A280 readout, triplicate, semi-quantitative) is recorded as “Non-binding”. The “Binding in competitive binding assay” value at MhPA14 [4] (GFP_MhPA14 on Superdex 200 resin) was “unable to bind MhPA14 at all”. For the compound curdlan, the “Affinity for MhPA14” value on MhPA14 [3] is on record as “almost no affinity”. As for dextran, the “Affinity for MhPA14” value at MhPA14 [3] was “modest affinities”. For `O=C[C@H](O)[C@@H](O)[C@@H](O)[C@H](O)CO` [Galactose], the Kd was 115 µM on EpA1; above 1000 µM at MhPA14 [1] (Kd); 1540 µM on MhPA14 [1] (Kd, fucose and glucose are averages of triplicate runs). Besides, on MhPA14 [1] (setting [6]), the “N (calculated stoichiometry)” value is reported as 1.00.

On to `O=CC[C@@H](O)[C@H](O)[C@H](O)CO` [2-deoxy-D-glucose], for which the equilibrium dissociation constant (Kd) at MhPA14 [1] (setting [5]) was 228 µM. For the same compound, the “N (calculated stoichiometry)” value on MhPA14 [1] (setting [6]) was 0.86.

Source of the values: publication PMC6650083, “Structure and functional analysis of a bacterial adhesin sugar-binding domain” (PLoS ONE, 2019).
